Laboratory results: ChEMBL document CHEMBL1201862, “PubChem BioAssay data set” (2004)
The source made the active and inactive calls.

Key:
Coagulation factor XII [1] = target: T1, Coagulation factor XII (Homo sapiens, UniProt P00748); assay: Factor XIIa Dose Response Confirmation from Single Well HTS. [Related pubchem assays (depositor defined):AID701]; type: functional
T1 sequence (P00748 whole entry): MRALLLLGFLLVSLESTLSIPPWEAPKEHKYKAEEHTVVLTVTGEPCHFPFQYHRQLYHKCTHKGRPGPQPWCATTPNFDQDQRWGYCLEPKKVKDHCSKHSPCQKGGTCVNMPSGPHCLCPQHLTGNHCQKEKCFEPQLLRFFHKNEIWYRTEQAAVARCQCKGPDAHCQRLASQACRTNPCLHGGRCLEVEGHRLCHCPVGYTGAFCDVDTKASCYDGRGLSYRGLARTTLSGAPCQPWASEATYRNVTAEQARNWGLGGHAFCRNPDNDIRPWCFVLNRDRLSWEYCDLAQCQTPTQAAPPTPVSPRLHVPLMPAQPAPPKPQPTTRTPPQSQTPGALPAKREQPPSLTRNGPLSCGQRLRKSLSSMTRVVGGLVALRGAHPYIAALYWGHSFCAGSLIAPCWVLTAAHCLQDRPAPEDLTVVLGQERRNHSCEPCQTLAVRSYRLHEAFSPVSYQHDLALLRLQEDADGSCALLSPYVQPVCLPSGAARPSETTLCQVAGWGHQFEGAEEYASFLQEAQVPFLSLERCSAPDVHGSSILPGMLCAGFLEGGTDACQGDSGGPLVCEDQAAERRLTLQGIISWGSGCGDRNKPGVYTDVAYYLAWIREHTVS

Vero [2] = assay: Vero 76 cell viability after compound exposure – Vero 76 cells, synthesized analogs, cytotoxicity control for West Nile virus antiviral project, SAR follow-up (AID 2414); type: functional; details: Chlorocebus sabaeus
Vero [3] = assay: host cell viability loss, Vero E6 – synthesized analogs, cytotoxicity control for West Nile virus antiviral project, SAR follow-up (AID 2244); type: functional; details: Chlorocebus sabaeus
Vero [4] = assay: antiviral protection of cells from WNV – synthesized analogs, SAR follow-up (AID 2238); type: functional, cell-based; details: Chlorocebus sabaeus
Coagulation factor XII [5] = target: T1, Coagulation factor XII; assay: activated coagulation factor XII inhibitor potency, concentration-effect curve, cell-free (AID 716); type: functional
[6] = target: T2, G-protein coupled receptor 55 (Homo sapiens, UniProt Q9Y2T6); assay: inhibition of LPI-stimulated GPR55 beta-arrestin translocation – imaging, U2OS, beta-arrestin-GFP, LPI agonist, primary screen (AID 2013); type: functional;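 note: antagonist potency measured as reduced agonist-driven arrestin aggregation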
[7] = HPDE-C7 pancreatic duct cell viability loss – fluorescence, HTS (AID 430); type: functional, cell-based; details: Homo sapiens
[8] = viability loss of HPDE-C7K cells – cell-based, fluorescence, HTS, primary screen (AID 431); type: functional; details: Homo sapiens
[9] = target: T3, Short transient receptor potential channel 4 (Mus musculus, UniProt Q9QUQ5); assay: potentiation of DAMGO-evoked TRPC4 calcium signal – cell-based, HEK293 TRPC4/mu-opioid, Fluo-4 calcium, EC20 DAMGO, dose response (AID 434941); type: functional
T3 sequence (Q9QUQ5 whole entry): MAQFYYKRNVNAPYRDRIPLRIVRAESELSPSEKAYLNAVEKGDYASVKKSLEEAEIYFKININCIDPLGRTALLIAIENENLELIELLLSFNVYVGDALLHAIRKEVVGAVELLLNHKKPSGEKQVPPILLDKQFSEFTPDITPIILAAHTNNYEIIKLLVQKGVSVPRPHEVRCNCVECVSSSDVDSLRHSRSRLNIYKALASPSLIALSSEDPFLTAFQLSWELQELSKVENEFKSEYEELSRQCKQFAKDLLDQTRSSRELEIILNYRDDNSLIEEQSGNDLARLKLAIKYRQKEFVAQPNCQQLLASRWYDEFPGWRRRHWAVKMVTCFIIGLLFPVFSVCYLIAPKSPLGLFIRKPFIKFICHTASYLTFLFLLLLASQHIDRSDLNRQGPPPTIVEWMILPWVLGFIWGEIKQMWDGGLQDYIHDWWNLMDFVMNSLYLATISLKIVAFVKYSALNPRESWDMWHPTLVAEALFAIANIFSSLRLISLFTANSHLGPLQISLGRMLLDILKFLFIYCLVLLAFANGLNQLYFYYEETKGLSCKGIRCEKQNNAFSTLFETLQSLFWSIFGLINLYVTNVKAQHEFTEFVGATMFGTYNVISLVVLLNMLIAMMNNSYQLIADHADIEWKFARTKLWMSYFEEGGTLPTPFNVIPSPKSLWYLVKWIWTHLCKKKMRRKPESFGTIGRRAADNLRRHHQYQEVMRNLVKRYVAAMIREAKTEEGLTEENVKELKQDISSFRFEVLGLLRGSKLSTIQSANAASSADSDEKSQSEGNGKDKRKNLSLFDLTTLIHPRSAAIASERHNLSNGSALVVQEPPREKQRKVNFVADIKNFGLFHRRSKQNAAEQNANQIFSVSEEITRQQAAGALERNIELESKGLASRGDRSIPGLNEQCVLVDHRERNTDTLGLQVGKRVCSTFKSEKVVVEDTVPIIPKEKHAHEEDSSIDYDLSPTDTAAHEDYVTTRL

[10] = target: T2, G-protein coupled receptor 55; assay: selective activators of receptor GPR55 – imaging, U2OS cells, beta-arrestin-GFP redistribution, primary screen (AID 1961); type: functional
BJ [11] = assay: BJ-TERT fibroblast viability loss – cell-based, RAS-independent, luminescence, dose response (AID 1933); type: functional; details: Homo sapiens
BJ [12] = assay: cells; type: functional, cell-based; details: Homo sapiens
[13] = Trypanosoma cruzi growth suppression in host cells – NIH3T3 host cells, beta-gal luminescence, confirmation (AID 2044); type: functional, cell-based;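 note: intracellular parasites grown in NIH/3T3 mouse fibroblasts as host cells; luminescent beta-galactosidase reporter signal from transgenic T. cruzi replicating inside host cells; inhibitors lower the luminescence signal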
[14] = NIH3T3 cell viability loss – ATP luminescence, mouse fibroblasts, counter-screen, dose response (AID 2010); type: functional, cell-based;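 note: cells exposed to compound for about 90 hours before reading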
BJ [15] = assay: BJ-TERT-LT-ST fibroblast viability loss – cell-based, RAS-independent, luminescence, dose response (AID 1935); type: functional; details: Homo sapiens;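 note: BJ fibroblasts immortalized with TERT plus LT and ST oncogenes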
[16] = DRD fibroblast viability loss – cell-based, non-viral oncogenic, luminescence, dose response (AID 1934); type: functional; details: Homo sapiens
Bcl-2-related protein A1 = target: T4, Bcl-2-related protein A1 (Mus musculus, UniProt Q07440); type: functional;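 note: confirmatory dose–response counterscreen on Bfl-1, used to check hits from a UBC13 polyubiquitin inhibitor campaign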
T4 sequence (Q07440 whole entry): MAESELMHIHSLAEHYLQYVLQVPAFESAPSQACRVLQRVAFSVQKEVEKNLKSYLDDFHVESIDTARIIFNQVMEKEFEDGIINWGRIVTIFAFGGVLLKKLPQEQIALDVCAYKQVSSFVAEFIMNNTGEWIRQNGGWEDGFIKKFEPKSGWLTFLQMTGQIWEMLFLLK

[17] = target: T5, Ubiquitin-conjugating enzyme E2 N (Homo sapiens, UniProt P61088); type: functional
T5 sequence (P61088 whole entry): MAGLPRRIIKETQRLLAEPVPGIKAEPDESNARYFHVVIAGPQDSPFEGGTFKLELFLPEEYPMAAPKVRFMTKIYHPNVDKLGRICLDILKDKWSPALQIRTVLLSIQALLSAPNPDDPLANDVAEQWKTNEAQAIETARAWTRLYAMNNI

[18] = target: T5, Ubiquitin-conjugating enzyme E2 N; type: functional; remark: listed apart in the source
[19] = target: T6, Type-1 angiotensin II receptor (Homo sapiens, UniProt P30556); assay: agonist activity at AGTR1 – cell-based, uHTS hits, selectivity assay for APJ receptor agonist project, dose response (AID 488865); type: functional;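 note: beta-arrestin recruitment to AT1 measured by enzyme fragment complementation luminescence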
T6 sequence (P30556 whole entry): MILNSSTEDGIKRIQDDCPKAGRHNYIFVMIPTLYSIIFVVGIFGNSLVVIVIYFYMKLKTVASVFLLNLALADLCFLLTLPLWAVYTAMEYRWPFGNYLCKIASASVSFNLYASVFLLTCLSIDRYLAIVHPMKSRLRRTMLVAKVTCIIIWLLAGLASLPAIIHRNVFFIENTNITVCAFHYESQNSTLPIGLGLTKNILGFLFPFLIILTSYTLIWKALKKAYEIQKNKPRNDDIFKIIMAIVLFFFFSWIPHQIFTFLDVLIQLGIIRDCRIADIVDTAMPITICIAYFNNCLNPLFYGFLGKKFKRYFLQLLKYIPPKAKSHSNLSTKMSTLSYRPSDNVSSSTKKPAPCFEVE

[20] = blockers of HIV-1 envelope-mediated cell-cell fusion – cherry-pick, dose response (AID 652057); type: functional, cell-based
[21] = viability loss in CEM21 cells – cell-based, CellTiter-Glo luminescence, cherry-picked, cytotoxicity control for viral fusion inhibitor project, dose response (AID 652042); type: functional;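 note: potency for signal decrease meaning cytotoxicity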
[22] = blockers of HIV-1 ZM109 envelope-driven cell-cell fusion – HeLa effector, CEM target cells, luciferase, cherry-pick, dose response (AID 652058); type: functional, cell-based;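 note: luciferase signal from HIV-1 Env mediated cell-cell fusion of effector and target cells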
[23] = off-target signal loss in HeLa-CEM21 co-culture – HeLa F-luc CTL cells, cherry-picked, counter-screen for HIV-1 Env fusion inhibitor project, dose response (AID 652040); type: functional, cell-based;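 note: potency for signal decrease marking cytotoxic or nonspecific inhibition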
[24] = HIV-1 AD8 envelope cell-cell fusion blockers – cherry-pick, dose response (AID 652062); type: functional, cell-based;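 note: luciferase signal from cell-cell fusion driven by HIV-1 clade B AD8 Env; potency is for inhibitors of fusion seen as a drop in luminescence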
[25] = luciferase reporter signal suppression in cells – H4 neuroglioma cells, luminescence, dose response (AID 1990); type: functional, cell-based
HEK293 [26] = assay: inhibition of NOD1-driven NF-kB reporter – cell-based, luminescence, uHTS, primary screen (AID 1578); type: functional; details: Homo sapiens
HEK293 [27] = assay: cells; type: functional, cell-based; details: Homo sapiens
[28] = Luminescence Cell-Based Dose Response HTS to Identify Inhibitors of 5'UTR Stem-Loop Driven Prion Protein mRNA Translation in H4 Neuroglioblastoma Cells. [Related pubchem assays: 1827 (Project Summary), 1813 (Primary HTS)]; type: functional
[29] = alpha-synuclein stem-loop luciferase translation blockers – H4 neuroglioma cells, luminescence, confirmation (AID 1988); type: functional, cell-based
HEK293 [30] = assay: cells; type: functional, cell-based; details: Homo sapiens; remark: listed apart in the source
[31] = target: Nucleotide-binding oligomerization domain-containing protein 2 (Homo sapiens, UniProt Q9HC29); assay: inhibition of NOD2-driven NF-kB reporter – cell-based, luminescence, uHTS, HEK293 (AID 1566); type: functional
HEK293 [32] = assay: NOD2 signaling inhibitors in MDP-stimulated cells, cell-based, uHTS, luminescence (AID 2001); type: functional; details: Homo sapiens
HEK293 [33] = assay: cells; type: functional, cell-based; details: Homo sapiens; remark: listed apart in the source
[34] = microbe, parasite or virus in culture; type: functional; details: Mycobacterium tuberculosis
[35] = THP-1 cell cytotoxicity, dose response, cytotoxicity control for non-replicating M. tuberculosis project (AID 489025); type: functional
[36] = Vero E6 cell cytotoxicity, dose response, cytotoxicity control for non-replicating M. tuberculosis project, secondary assay (AID 492998); type: functional, VeroE6; details: Vero C1008
cells = type: functional
INS1 = assay: INS-1E survival protection against cytokine death – cell-based, luminescence, retest, dose response (AID 449756); type: functional; details: Rattus norvegicus;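 note: cell death triggered by IL-1 beta plus TNF-alpha plus IFN-gamma mixture; protective hits raise ATP signal compared with cytokine alone wells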

T2 sequence (Q9Y2T6 whole entry): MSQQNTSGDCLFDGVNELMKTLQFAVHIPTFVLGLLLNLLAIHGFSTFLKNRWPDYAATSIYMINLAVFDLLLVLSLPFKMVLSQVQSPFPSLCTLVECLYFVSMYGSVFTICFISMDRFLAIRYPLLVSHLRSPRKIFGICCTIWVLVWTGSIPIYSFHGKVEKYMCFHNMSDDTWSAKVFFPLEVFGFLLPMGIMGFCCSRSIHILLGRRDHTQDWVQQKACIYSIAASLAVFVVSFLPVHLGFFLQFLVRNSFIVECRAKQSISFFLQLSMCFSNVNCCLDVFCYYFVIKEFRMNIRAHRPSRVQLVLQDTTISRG
Sequence of Nucleotide-binding oligomerization domain-containing protein 2 (Q9HC29 whole entry, the tested form may be a part): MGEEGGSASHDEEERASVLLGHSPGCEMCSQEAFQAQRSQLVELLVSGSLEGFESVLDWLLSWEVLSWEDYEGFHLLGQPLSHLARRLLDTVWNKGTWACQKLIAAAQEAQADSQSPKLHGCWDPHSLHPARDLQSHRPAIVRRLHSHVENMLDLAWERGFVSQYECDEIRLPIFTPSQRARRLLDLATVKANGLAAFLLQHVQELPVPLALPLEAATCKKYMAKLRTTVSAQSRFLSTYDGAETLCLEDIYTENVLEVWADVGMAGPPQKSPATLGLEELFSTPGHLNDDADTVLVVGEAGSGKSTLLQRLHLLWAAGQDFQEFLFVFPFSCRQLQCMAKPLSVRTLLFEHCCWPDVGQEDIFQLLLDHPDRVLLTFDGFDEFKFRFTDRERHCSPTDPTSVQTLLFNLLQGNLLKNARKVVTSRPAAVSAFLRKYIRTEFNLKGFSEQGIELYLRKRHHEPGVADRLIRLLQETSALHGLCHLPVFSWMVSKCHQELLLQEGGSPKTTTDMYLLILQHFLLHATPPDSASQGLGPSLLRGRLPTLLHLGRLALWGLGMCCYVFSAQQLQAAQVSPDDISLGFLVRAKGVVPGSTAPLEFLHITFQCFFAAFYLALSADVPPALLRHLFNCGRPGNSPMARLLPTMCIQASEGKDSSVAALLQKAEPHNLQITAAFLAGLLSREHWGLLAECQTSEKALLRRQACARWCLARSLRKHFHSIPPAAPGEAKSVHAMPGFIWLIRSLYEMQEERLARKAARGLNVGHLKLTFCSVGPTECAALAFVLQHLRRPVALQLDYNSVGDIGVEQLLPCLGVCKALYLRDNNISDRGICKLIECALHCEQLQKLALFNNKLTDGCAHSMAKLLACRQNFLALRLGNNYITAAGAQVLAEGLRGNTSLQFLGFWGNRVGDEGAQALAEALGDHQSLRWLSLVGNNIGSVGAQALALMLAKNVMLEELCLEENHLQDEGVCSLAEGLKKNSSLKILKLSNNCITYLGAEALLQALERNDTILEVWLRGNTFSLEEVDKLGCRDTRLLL

## Cc1ccc(NC(=O)C2(S(=O)(=O)c3ccc(C)cc3)CC2)cc1
Coagulation factor XII [1]
  IC50: > 50 µM (inactive)

## O=C(CSc1nc2ccccc2c(=O)n1-c1ccccc1)Nc1ccc2c(c1)CCC2
Vero [2]
  CC50: > 66.6 µM (active)
Vero [3]
  CC50: > 40 µM (active)
Vero [4]
  IC50: 15.5 µM (active)

## Cc1c(C(=O)OCCOC(C)C)[nH]c2c1C(=O)CC(C)(C)C2
Coagulation factor XII [5]
  IC50: > 50 µM (inactive)

## N#C/C(=C/c1c[nH]nc1-c1cccc(Br)c1)C(=O)O
[6]
  IC50: 1.12 µM (active)

## CCCC1(c2ccccc2)NC(=O)N(CC(=O)c2[nH]c(C)c(C(=O)OCC)c2C)C1=O (stereo unspecified)
[7]
  EC50: > 20 µM (not active)
[8]
  EC50: > 20 µM (not active)
[9]
  EC50: 2.66 µM (active)

## COc1ccccc1OCC(=O)/C=C1/N(C)c2ccccc2C1(C)C
[10]
  EC50: 5.48 µM (active)

## COc1ccc2sc(N(CCCN(C)C)C(=O)c3ccc(S(=O)(=O)N4CCc5ccccc5C4)cc3)nc2c1
BJ [11]
  EC50: 2.75 µM (inconclusive)
BJ [12]
  EC50: 10 µM (active)
[13]
  EC50: 0.228 µM (active)
[14]
  EC50: 5.73 µM (active)
BJ [15]
  EC50: 4.5 µM (inconclusive)
[16]
  EC50: 5.14 µM (inconclusive)
Bcl-2-related protein A1
  IC50: > 20 µM (inactive)
[17]
  IC50: 8.44 µM (active)
[18]
  IC50: 8.54 µM (active)
[19]
  EC50: > 100 µM (inactive)
[20]
  AC50: 6.44 µM (active)
[21]
  AC50: 3.7 µM (active)
[22]
  AC50: 9.11 µM (active)
[23]
  AC50: 8.3 µM (active)
[24]
  AC50: 6.84 µM (active)

## Cc1cc(N/N=C/c2ccccc2[N+](=O)[O-])nc(-n2nc(C)cc2C)n1
[25]
  EC50: 13.3 µM (active)
HEK293 [26]
  EC50: 6.21 µM (active)
HEK293 [27]
  IC50: 15.6 µM (active)
[28]
  EC50: 13.1 µM (active)
[29]
  EC50: > 120 µM (not active)
HEK293 [30]
  IC50: > 20 µM (inactive)
[31]
  EC50: > 20 µM (inactive)
HEK293 [32]
  IC50: 6.54 µM (inactive)
[13]
  EC50: 2.26 µM (active)
HEK293 [33]
  IC50: > 20 µM (inactive)
[34]
  CC50: 15.5 µM (active)
[14]
  EC50: 7.48 µM (active)
[35]
  CC50: 4.01 µM (active)
[36]
  CC50: 6.96 µM (active)
cells
  IC50: 0.6 µM (active)
INS1
  AC50: 2.77 µM (active)
